Experimental data as given in patent publication US20210299109A1, “AGENTS FOR TREATING CANCER AND METHODS FOR IDENTIFYING SAID AGENTS” (MINERVA BIOTECHNOLOGIES CORPORATION, priority 2017, published 2021).

Key:
[1] = system: human naïve state stem cells; assay: stem cell drug screen on naïve state stem cells; type: cell-based; conditions: for effect on naïve stem cells: pluripotency, growth, differentiation (first panel, FIG. 2, 7-10): 6 uM, 3 days, with or without NME7AB
Description: (§1) The stem cell screening assay, was performed in both the presence and absence of the stem cell growth factors: NME7AB for growing naïve stem cells or FGF for growing primed stem cells. If the cognate growth factor was present, then the biological or small molecule would have to compete away the growth factor to get an effect. Therefore, we expected to see more of an effect when the growth factor, FGF for primed stem cells or NME7AB or NME1 dimers for naïve stem cells, was absent. The effect of the compounds on stem cells was visually determined and compounds were ranked 0-4, with 4 being the greatest effect and 0 being no observable effect. The major effect that was observed was a change from pluripotent stem cell morphology, which is a cobblestone pattern of small round cells with a large nucleus to cytoplasm ratio, to that of differentiating stem cells, which are elongated, large and flattened cells with a smaller nucleus to cytoplasm ratio. […] […] In this particular case, the naïve state stem cells were maintained in a naïve state by culturing in a media containing NME7AB or NME1 dimers. However, other methods such as 2i and 5i (Silva et al., 2008, Nichols and Smith, 2009, Theunissen et al., 2014)] can be used to maintain stem cells in a more naïve state. In this case primed state stem cells were cultured in bFGF over a layer of MEFs, although it is known that any bFGF containing media will maintain stem cells in the primed state.
Percent inhibition of cancer cell migration was performed in a wound healing assay. The percent area that the invading cancer cells occupied, in the presence of a drug candidate compared to the controls, was quantified by Image J cell software which enables cell counting from photographs. IC50's were calculated by performing migration experiments at several compound concentrations and then applying Hill's equation. Inhibition of cancer cell proliferation was quantified by automated cell counting in the presence or absence of a drug candidate. Here, the inhibition of cancer cell proliferation was scored 1 if proliferation was inhibited by 25%, 2 if inhibited by 50%, 3 for 75% and 4 for the highest degree of inhibition of proliferation, and 0 for the lowest. The effect of the drug candidates on stem cell pluripotency or proliferation was scored by eye, based on cell morphology and cell density, with 0 being no change in morphology or cell number and 4 being the most profound effect, with the stem cells taking on the morphology of a differentiating cell, along with much fewer cells indicative of inhibition of proliferation. As an example, FIGS. 30A-30F show photographs of naïve stem cell, primed stem cell and fibroblast controls. FIGS. 31A-31F show the effect of compounds of the invention on naïve state stem cells, where the number of ‘+’ signs indicates the score from 0-4 of ability of compound to inhibit pluripotency, proliferation of naïve stem cells or ability to induce their differentiation. […] FIGS. 36-44 and 65-87 show photographs and IC50 graphs of the compounds of the invention, inhibiting cancer cell migration and invasion. Cancer cell migration is a hallmark of metastatic cancer.
Stem cells whether embryonic or induced pluripotent stem (iPS) cells were cultured in a minimal, serum-free media that contained human recombinant NME7AB at a concentration of 2-32 nM wherein 4-8 nM is preferred and 4 nM is more preferred. […]

[2] = system: human primed state stem cells; assay: stem cell drug screen on primed state stem cells; type: cell-based
Description: as §1
Percent inhibition of cancer cell migration was performed in a wound healing assay. The percent area that the invading cancer cells occupied, in the presence of a drug candidate compared to the controls, was quantified by Image J cell software which enables cell counting from photographs. IC50's were calculated by performing migration experiments at several compound concentrations and then applying Hill's equation. Inhibition of cancer cell proliferation was quantified by automated cell counting in the presence or absence of a drug candidate. Here, the inhibition of cancer cell proliferation was scored 1 if proliferation was inhibited by 25%, 2 if inhibited by 50%, 3 for 75% and 4 for the highest degree of inhibition of proliferation, and 0 for the lowest. The effect of the drug candidates on stem cell pluripotency or proliferation was scored by eye, based on cell morphology and cell density, with 0 being no change in morphology or cell number and 4 being the most profound effect, with the stem cells taking on the morphology of a differentiating cell, along with much fewer cells indicative of inhibition of proliferation. As an example, FIGS. 30A-30F show photographs of naïve stem cell, primed stem cell and fibroblast controls. […]

[3] = system: MUC1* positive cancer cells; conditions: in vitro; cited from earlier work
naïve stem cells = assay: RT-PCR of differentiation markers and super-enhancer target genes in naïve stem cells; type: cell-based, human
From the text: The genes whose expression increased as a result of treatment with the compounds of the invention, in a concentration dependent manner, are fibronectin and vimentin, which both increase as stem cells initiate differentiation and NF1, which is one of the first genes to increase when stem cells begin to differentiate down the neural lineage. […] Thus, compounds of the invention that induce markers of differentiation are useful for the treatment of cancers, because cancer cells, by definition, have de-differentiated, which allows them to continually self-replicate. […] Expression of metastatic marker E-cadherin was reduced and expression of differentiation markers fibronectin, vimentin and NF1 were increased. Novel compounds of the invention are highly specific. […] Although we discovered that NME1 dimers, NME7AB and NME7-X1 are all activating ligands of the MUC1* growth factor receptor and they bind to its extracellular domain, we have developed ample evidence that both NME7AB and NME7-X1 have other binding partners and can exert oncogenic effects, independent of MUC1*.
We first used RT-PCR to measure expression of these super-enhancer target genes and other genes of interest in naïve stem cells in the presence or absence of a few compounds of the invention. […] We also measured expression of microRNA-145, in response to treatment with compounds of the invention. […]

human fibroblasts = assay: effect on fibroblast proliferation (surrogate for normal cells); type: cell-based; conditions: 500 nM final concentration
From the text: However, fibroblasts are more differentiated than stem cells but are able to self-replicate for defined periods of time. We tested selected compounds of the invention to determine if these compounds were just cytotoxic or if they selectively affected stem cells and, importantly, cancer cells, but not normal, healthy cells. Here, we used fibroblasts as a surrogate for normal cells. […] […] Each compound was scored for its effect on fibroblast proliferation where “+” indicates 25% inhibition of fibroblast growth, “++” 50% inhibition and “+++” 75% inhibition of growth.

cancer cells = conditions: cited from earlier work

## CCCCNC(=O)N1CCc2c([nH]c3ccccc23)C1C(C)c1ccccc1 (centres unmarked) [MN1130]
[1]
  effect on naïve stem cells: pluripotency, growth, differentiation (first panel, FIG. 2, 7-10): induced differentiation
[2]; 6 uM, 3 days, with or without FGF
  effect on primed stem cells (first panel, FIG. 2-6): modest effect

## COC(=O)c1ccc(C2c3[nH]c4ccccc4c3CCN2C(=O)c2cccc(Cl)c2)cc1 (centres unmarked) [MN0642]
[1]
  effect on naïve stem cells: pluripotency, growth, differentiation (first panel, FIG. 2, 7-10): induced differentiation
[3]
  inhibition of growth of cancer cells: inhibit the growth of cancer cells in vitro

## Cc1[nH]c(/C=C2\C(=O)Nc3ccc(S(=O)(=O)N(C)c4cccc(Cl)c4)cc32)c(C)c1C(=O)N1CCN(C)CC1 [SU11274]
naïve stem cells
  up-regulation of markers of differentiation (fibronectin, vimentin, NF1) in naïve stem cells: did not cause up-regulation of markers of differentiation

## Cc1sc2c(c1C)C(c1ccc(Cl)cc1)=N[C@@H](CC(=O)OC(C)(C)C)c1nnc(C)n1-2 [JQ1(+)]
[1]
  effect on naïve stem cell growth: inhibitory effect
[1]; 500 nM or 1 uM, cells cultured in NME7AB or NME1 dimers
  induction of differentiation and growth inhibition of naïve state stem cells: dramatically induced differentiation
[2]
  effect on primed stem cell growth: not primed stem cell growth
[2]; treated for 3 days, 500 nM or 1 uM
  effect on the size of primed stem cell colonies: modest effect
[2]; treated for 3 days, JQ1 at 500 nM or 1 uM, bFGF absent
  induction of differentiation of primed state stem cells: None of these agents appeared to induce differentiation
Human fibroblasts
  effect on fibroblasts: same effect on fibroblasts as it does on primed state stem cells
naïve stem cells
  up-regulation of markers of differentiation (fibronectin, vimentin, NF1) in naïve stem cells: did not cause up-regulation of markers of differentiation

## FLR peptide: synthetic peptide corresponding to the extracellular domain of MUC1*, FLR also known as PSMGFR (SEQ ID NO:3) (GTINVHDVETQFNQYKTEAASRYNLTISDVSVSDVPFPFSAQSGA; the extracellular domain of Native Primary Sequence of the MUC1 Growth Factor Receptor (nat-PSMGFR - an example of “PSMGFR”))
[1]
  effect on naïve stem cells: pluripotency, growth, differentiation (first panel, FIG. 2, 7-10): induced differentiation
Cancer cells
  inhibition of the transition of regular cancer cells to metastatic cancer cells: inhibit the transition of regular cancer cells to metastatic cancer cells
